Laboratory results published in patent US20130197040A1, “POLYMORPHS OF DALFAMPRIDINE, PREPARATIONS AND USES THEREOF” (priority 2010, published 2013).

Assays:
[1] = Stability on exposure to the air at room temperature for 12 months, purity by HPLC; assay type: physicochemical; conditions: after exposure to the air at room temperature for 12 months
Experimental: (§1) The polymorphs of 4-aminopyridine or the polymorphs of the solvates thereof according to the present invention were exposed to the air at room temperature for 12 months, and then purities thereof were measured by using high performance liquid chromatography.
as §1, with “The above-mentioned eight” for “The”, “or” for “or the polymorphs”, “chromatography. The obtained purity results thereof were shown as follows:” for “chromatography.”
The purities were measured by using high performance liquid chromatography under the following conditions:
Chromatographic Column: Agilent extend-C18 (250*4.6 mm, 5 μ)
Mobile Phase: 0.01 mol/L of monopotassium phosphate solution containing 0.01 mol/L of sodium octanesulfonate (adjusted to pH 2.6 with phosphoric acid)-methanol (75:25);
Column Temperature: 40° C.;
Detection Wavelength: 264 nm;

[2] = system: multiple sclerosis patients; conditions: injected in 11 patients with eyesight and motor function impaired because of multiple sclerosis, 1983; cited from earlier work
[3] = system: multiple sclerosis patients; conditions: clinical trials (Phase III); cited from earlier work

SMILES | Purity (%) [1] [%] | also measured
Nc1ccncc1 [Polymorph VI, 4-aminopyridine] | 99.98 | –
Nc1ccncc1 [Polymorph V, 4-aminopyridine] | 100 | –
Nc1ccncc1 [Polymorph III, 4-aminopyridine] | 100 | –
Nc1ccncc1 [Polymorph I, 4-aminopyridine] | 99.66 | –
Nc1ccncc1 [Polymorph VII, 4-aminopyridine] | 100 | –
Nc1ccncc1 [Polymorph II, 4-aminopyridine] | 100 | –
Nc1ccncc1 [dalfampridine, 4-aminopyridine] | – | eyesight [2]: improved; walking speed [2]: improved; walking speed versus placebo [3]: faster than that in patients who took a placebo
Nc1ccncc1 [Polymorph IV, 4-aminopyridine] | 100 | –
Nc1ccncc1 [Polymorph VIII, 4-aminopyridine] | 100 | –
